Measured values from patent EP1015457B1, “1,3-DIOXOLO/4,5-H//2,3/BENZODIAZEPINE DERIVATIVES AS AMPA/KAINATE RECEPTOR INHIBITORS” (EGIS GYOGYSZERGYAR RT., priority 1997, dated 1999).
Read-outs that look alike come from different tables or passages of the source.

Tests used:
male NMRI mice [1] = assay: Maximal electroshock test (MES); assay type: in vivo; details: Mus musculus, 0.5 h, ip., inhibition of maximal electroshock, 30 minutes after treatment
Experimental: Maximal electroshock test (MES)
Male NMRI mice weighing 20 to 30 g were used for the method of Swinyard et al. /Swinyard, E.A., Brown, W.C. and Goodman, L.S.: Comparative assays of antiepileptic drugs in mice and rats, J. Pharmacol., 106, 319 (1952)/. The animals, 10 in each group, were treated ip. either with various doses of the test substance or with vehicle. After 30 minutes, a 50 Hz, 40 mA electroshock was applied for 0.4 s through corneal electrodes. The number of animals that developed tonic extensor convulsion of the hind-limbs was registered, percent inhibition was calculated, and ED50 values were determined by the method of Litchfield and Wilcoxon /Litchfield, J.T., Wilcoxon, F.A.: A simplified method of evaluating dose-effect experiments, J. Pharmacol. Exp. Ther., 96, 99 (1949)/ and summarized in Table III.

[2] = test system: isolated retinal preparation of the chicken; assay: SD (spreading depression) test, evoked by kainate; assay type: cell-based; details: Gallus gallus, chicken retina
Description: SD (spreading depression) test
The method is based on the phenomenon of spreading depression evoked by kainate in isolated retinal preparation of the chicken. The formation of spreading depression is inhibited (delayed) by AMPA/kainate antagonists. /Sheardown M.J.: The triggering of spreading depression in the chicken retina: a pharmacological study, Brain Res., 607(1-2), 189-194 (1993)/.

male NMRI mice [3] = assay: Muscle relaxant effect, 60° inclined screen according to Hoppe; assay type: in vivo; details: for ED50: Mus musculus, determined at the time of maximal effect; for ED50 / Muscle relaxant effect duration: ip.; for ED50 / Muscle relaxant effect duration / muscle relaxant effect in the inclined screen: mice; for Muscle relaxant effect duration: time of last reading when the effect was at least 30 %; for muscle relaxant effect in the inclined screen: 60 mg/kg dose
Experimental: The assay was done according to Hoppe in male NMRI mice weighing 20 to 25 g, with 10 animals in each group /Hoppe, J.O., J . Pharmacol. Exp. Ther., 100, 333 (1950)/. Following the ip. treatment of animals, the number of mice showing muscle weakness were recorded at every 10 minutes in the first hour and at half hour intervals afterwards. The animals falling off the 60° inclined screen within 30 seconds were considered positive. ED50 values of the given compounds were determined at each time. The duration of effect was defined as the time of last reading when the effect was at least 30 %.

male NMRI mice [4] = assay: Global ischemia induced by magnesium chloride (gasping time); assay type: in vivo; details: for Effect in % (increase in gasping time): Dose 30 mg/kg ip., magnesium chloride iv. after 30 minutes; for ID50: ip., gasping time, calculated by linear regression
Experimental: Global ischemia induced by magnesium chloride
The experiments were carried out as described by Berga et al. /Berga, P., Beckett, P.R., Roberts, D.J., Llenas, J., Massingham, R.: Synergistic interactions between piracetam and dihydroergocristine in some animal models of cerebral hypoxia and ischemia, Arzneim.--Forsch., 36, 1314-1320 (1986)/. Groups of 10 male NMRI mice weighing 20 to 25 g were treated ip. with the test substance in […]. After 30 minutes, saturated aqueous magnesium chloride solution was applied iv. (5 ml/kg) resulting in an immediate cardiac arrest. The elapsed time between the iv. injection and the last gasping was measured (gasping time). The means of the treated groups were expressed as percent of control. Statistical analysis was done by ANOVA followed by DUNCAN test. The dose resulting in 50 % descrease in gasping time (ID50) was calculated by linear regression.

[5] = test system: CAl neurones of rat hippocampus; assay: PSI (inhibition of population spike) test; assay type: cell-based; details: electric stimulation of Shaffer collateral comissural pathway
Experimental: PSI (inhibition of population spike) test
The field potentials (population spike) evoked by electric stimulation of the Shaffer collateral comissural pathway were measured in the CAl neurones of rat hippocampus. The population spike can be inhibited by AMPA/kainate antagonists. The non-cumulative IC50 values are shown in Table I. /Tarnawa, I., Molnár, P., Gaál, L., Andrási, F.: Inhibition of hippocampal field potentials by GYKI 52466 in vitro and in vivo, Acta Physiol. Hung., 79(2), 163-9 (1992)/.

male DBA/2j strain mice = assay: Audiogenic seizure (AS) test; assay type: in vivo; details: Mus musculus, ip., DBA/2j mice, inhibition of sound induced seizure
Experimental: Audiogenic seizure (AS) test
The experiments were carried out by the slightly modified method of De Sarro et al. /De Sarro, G.B., Croucher, M.J. and Meldrum, B.S.: Anticonvulsant action of DS 103-282, Neuropharm., 23, 525 (1984)/. Groups of 8 male DBA/2j strain mice weighing 7 to 14 g were treated ip. with the test substance in 10 ml/kg volume. 15 minutes later, the animals were placed into a covered glass container (30 cm in diameter) and exposed to a 14 kHz 120 dB tone for 60 s at the most. Seizure response was assessed using the following scale: 0 = normal behaviour, 1 = wild running, 2 = clonus, 3 = tonic flexor seizure, 4 = tonic extensor seizure. The maximum response during the 60 s exposure was recorded for each animal. Lethality was also noted. The ED50 values were determined by the method of Litchfield and Wilcoxon concerning the inhibition of clonic seizures and tonic extensor convulsions.

[6] = clonic seizures, read-out: AS ED50 clonic convulsion
[7] = tonic extensor convulsions, read-out: AS ED50 tonic convulsion

Row | SMILES | ED50 (male NMRI mice [1]) | IC50 [2] | ED50 (male NMRI mice [3]) | Muscle relaxant effect duration (male NMRI mice [3]) | Effect in % (increase in gasping time) (male NMRI mice [4]) | ID50 (male NMRI mice [4]) | Percent inhibition of population spike (10 micron) [5] | ED50 (male DBA/2j strain mice; [6]) | ED50 (male DBA/2j strain mice; [7]) | muscle relaxant effect in the inclined screen (male NMRI mice [3]) | muscle relaxant effect (male NMRI mice [3]; at about 4.5 times higher dose than the anticonvulsive ED50 (6.9 mg/kg))
1 | CC1Cc2cc3c(cc2C(c2ccc(N)cc2)=NN1C(=O)NC1CC1)OCO3 (racemic) [Example 2, (±)-5-(4-Aminophenyl)-7-(N-cyclopropylcarbamoyl)-7,8-dihydro-8-methyl-9H-1,3--dioxolo/4,5-h//2,3/benzodiazepine] | 4.6 mg/kg | 1300 nM | 21.1 mg/kg | higher than 2 hr | 61% | 13 mg/kg | 100% | 2.5 mg/kg | 1.6 mg/kg |  | 
2 | CONC(=O)N1N=C(c2ccc(N)cc2)c2cc3c(cc2CC1C)OCO3 (racemic) [Example 3, (±)-5-(4-Aminophenyl)-7,8-dihydro-8-methyl--7-(N-methoxycarbamoyl)-9H-1,3-dioxolo/4,5-h//2,3/benzodiazepine] | 3.7 mg/kg | 1500 nM | 18.1 mg/kg | 4 h | 52% | 27 mg/kg | 95% |  |  |  | 
3 | CC1Cc2cc3c(cc2C(c2ccc(N)cc2)=NN1C(=O)NN)OCO3 (racemic) [Example 4, (±)-5-(4-Aminophenyl)-7-(N-aminocarbamoyl)--7,8-dihydro-8-methyl-9H-1,3-dioxolo/4,5-h//2,3/benzodiazepine] |  |  |  |  |  |  | 95% |  |  |  | 
4 | CC1=NN=C(c2ccc(N)cc2)c2cc3c(cc2C1)OCO3 [A, 8-Methyl-5--(4-aminophenyl)-9H-1,3-dioxolo/4,5-h//2,3/benzodiazepine, reference compound] | 6.9 mg/kg | 9500 nM | 24.5 mg/kg | 1 h | 55% | 30 mg/kg | 58% | 4.3 mg/kg | 3.6 mg/kg | all the treated animals showed muscle relaxation | about 50%
5 | CC1=Cc2cc3c(cc2C(c2ccc(N)cc2)=NN1C(=O)NCCN1CCOCC1)OCO3 [Example 6, 5-(4-Aminopheayl)-8-methyl-7H-1,3-dioxolo/4,5-h//2,3/benzodiazepine-7-carboxylic acid-(2-morpholino-4-ylethyl)amide] | ~10 mg/kg | 6500 nM |  |  |  |  |  |  |  | no muscle relaxant effect | 
6 | CNC(=O)N1N=C(c2ccc(N)cc2)c2cc3c(cc2C=C1C)OCO3 [Example 11, 5-(4-Aminophenyl)-8-methyl-7-methylcarbamoyl-7H-1,3-dioxolo/4,5-h//2,3/benzodiazepine] |  | 2800 nM |  |  |  |  |  |  |  |  | 
